Measurements as given in PMC11122761, “Synthetic ShK-like Peptide from the Jellyfish Nemopilema nomurai Has Human Voltage-Gated Potassium-Channel-Blocking Activity” (Marine Drugs, 2024).
“Also recorded” adds a separate entry of the source. Where no end group is shown, it is not given here.

Experiments:
hKv1.3 = experiment: Whole-cell patch-clamp current recording, hKv1.3; type: cell-based, human; settings: for hKv1.3 IV curve, p vs. 0 nM: IV curves −130 to 50 mV (Figure 3), two-way ANOVA; for hKv1.3 IV curve, p vs. 0 nM / reduction of hKv1.3 current amplitude at 50 mV, p vs. 0 nM: Dunnett's post hoc; for reduction of hKv1.3 current amplitude at 50 mV, p vs. 0 nM: one-way ANOVA; for current of hKv1.3 (current amplitude), effect of treatment / inhibition of the current amplitudes of hKv1.3 by NnK-1 analogs: 0.01, 1, 100, or 500 nM; for current of hKv1.3 (current amplitude), effect of treatment: HEK293 cells expressing hKv1.3, bath-applied for 2 min, whole-cell, holding potential –70 mV; for hKv1.3 IV curves, two-way ANOVA group effect p: group effect, 0, 0.01, 1, 100, or 500 nM, Figure 3 IV curves; for hKv1.3 current amplitude at 50 mV, one-way ANOVA p: overall, 0, 0.01, 1, 100, or 500 nM; for inhibition of the current amplitudes of hKv1.3 by NnK-1 analogs: Figure 6
Protocol: (§1) The amplification was performed in the Veriti™ 96-Well Fast Thermal Cycler (Applied Biosystems, Waltham, MA, USA) with a thermal cycling program consisting of predenaturation for 3 min at 95 °C, followed by 30 cycles of denaturation for 30 s at 95 °C, annealing for 30 s at 58 °C, and extension for 30 s at 72 °C, with a final extension for 3 min at 72 °C. A Human cDNA Clone Set (OriGene Technologies GmbH, Herford, Germany) was used as the template. A MCS (multi-cloning site) digested from the pAAV-MCS vector (Cell Biolabs, San Diego, CA, USA) was ligated into the pIRES2-EGFP vector (Clontech Laboratories, Mountain View, CA, USA) to form pAAV–CMV–IRES2–EGFP. The PCR products were ligated into the pAAV–CMV–IRES2–EGFP vector at the NheI and SalI sites to construct pAAV–CMV–hKv–IRES2–EGFP.
(§2) The HEK293 cells were transfected with pAAV–CMV–hKv–IRES2–EGFP (2 μg) using Effectene Transfection Reagent (Qiagen, Hilden, Germany) for 12–18 h. The transfectants (1 × 10^5/mL) were seeded onto 12 mm coverslips coated with 0.01 mg/mL poly-D-lysine for 2–3 h.
The HEK293 cells expressing AAV–CMV–hKv–IRES2–EGFP were reseeded onto coverslips. The HEK293 transfectants were monitored for their green fluorescence and used as patch cells. Patch pipettes were filled with an internal solution (140 mM potassium gluconate, 10 mM HEPES, 0.2 mM ATP, and 0.06 mM GTP). An external solution [130 mM NaCl, 10 mM HEPES, 3 mM KCl, 1.5 mM D-glucose, 10 mM sucrose, […], 1.5 mM MgCl2·6H2O, osmolarity 320 mmol/kg (pH 7.2)] was used as the basic buffer. Psora4, ShK, or NnK-1 (0, 0.01, 1, 100, or 500 nM) was bath-applied for 2 min to block the currents recorded from the HEK293 cells expressing AAV–CMV–hKv–IRES2–EGFP with voltages ranging from −130 to 50 mV in the increments of 20 mV and 0.6 s. Whole-cell patch recordings from […] under voltage-clamp conditions (holding potential of –70 mV) were made with the Multiclamp 700 B microelectrode amplifier (Automate Scientific Inc., Berkeley, CA, USA) digitized with a Digidata 1322 A data acquisition system (Molecular Devices Limited, San Jose, CA, USA). In this study, all electrophysiological data from the cultured cells were obtained at a temperature of 23–25 °C and maintained with the CL-100 Temperature Controller (Warner Instruments LLC, Hamden, CT, USA).

hKv1.5 = experiment: Whole-cell patch-clamp current recording, hKv1.5; type: cell-based, human
Protocol: as §1, §2
(§3) The HEK293 cells expressing AAV–CMV–hKv–IRES2–EGFP were reseeded onto coverslips. The HEK293 transfectants were monitored for their green fluorescence and used as patch cells. Patch pipettes were filled with an internal solution (140 mM potassium gluconate, 10 mM HEPES, 0.2 mM ATP, and 0.06 mM GTP). An external solution [130 mM NaCl, 10 mM HEPES, 3 mM KCl, 1.5 mM D-glucose, 10 mM sucrose, […], 1.5 mM MgCl2·6H2O, osmolarity 320 mmol/kg (pH 7.2)] was used as the basic buffer. Psora4, ShK, or NnK-1 (0, 0.01, 1, 100, or 500 nM) was bath-applied for 2 min to block the currents recorded from the HEK293 cells expressing AAV–CMV–hKv–IRES2–EGFP with voltages ranging from −130 to 50 mV in the increments of 20 mV and 0.6 s. […]

hKv3.1 = experiment: Whole-cell patch-clamp current recording, hKv3.1; type: cell-based, human; settings: 100 nM NnK-1; Figure 4E; HEK293, bath-applied 2 min, 23–25 °C
Protocol: as §1
(§4) The HEK293 cells were transfected with pAAV–CMV–hKv–IRES2–EGFP (2 μg) using Effectene Transfection Reagent (Qiagen, Hilden, Germany) for 12–18 h. […]
(§5) The HEK293 cells expressing AAV–CMV–hKv–IRES2–EGFP were reseeded onto coverslips. The HEK293 transfectants were monitored for their green fluorescence and used as patch cells. […] Psora4, ShK, or NnK-1 (0, 0.01, 1, 100, or 500 nM) was bath-applied for 2 min to block the currents recorded from the HEK293 cells expressing AAV–CMV–hKv–IRES2–EGFP with voltages ranging from −130 to 50 mV in the increments of 20 mV and 0.6 s. […]

hKv11.1 = experiment: Whole-cell patch-clamp current recording, hKv11.1; type: cell-based, human; settings: 100 nM NnK-1; Figure 4F; HEK293, bath-applied 2 min, 23–25 °C
Protocol: as §1, §4, §5

hKv1.4 = experiment: Whole-cell patch-clamp current recording, hKv1.4; type: cell-based, human
Protocol: as §1, §2, §3

[1] = Maintenance of disulfide bonds of synthetic NnK-1 in solution; type: physicochemical; settings: dissolved in a solution; inferred from comparison with NnK-1 w/o d on hKv1.3
Description: Another peptide, NnK-1 w/o d, which had the same amino acid residues but without three pairs of disulfide bonds, was also synthesized to test whether the disulfide bonds were still intact in the synthetic NnK-1 after being dissolved in a solution.

[2] = system: untransfected HEK293 cells; experiment: Cell viability assay (CCK-8), untransfected HEK293 cells; type: cell-based; settings: 1 h treatment, 0.01, 1, 100, and 500 nM; CCK-8, absorbance 450 nm
Protocol: (§6) The cell viability of the HEK293 cells was assessed with a Cell Counting Kit-8 (CCK-8, DJDB4000X, Dojindo laboratory, Kumanoto, Japan). Both the HEK293 cells and HEK293 cells expressing AAV–CMV–hKv–IRES2–EGFP were seeded onto a 96-well plate (1 × 10^4 cells/well). After 24 h of incubation, ShK, NnK-1, NnK-1 mu, and NnK-1 w/o d (0, 0.01, 1, 100, or 500 nM) were used to treat the cells in each well for 1 h. After that, a dye solution was used to treat the cells for 2 h, and the absorbance was measured at 450 nm using a microplate reader (GloMax explorer multimode, Promega, Madison, WI, USA).

hKv1.1 = experiment: Whole-cell patch-clamp current recording, hKv1.1; type: cell-based, human; settings: HEK293, bath-applied 2 min
Protocol: as §1, §4, §5

[3] = system: hKv1.3-transfected HEK293 cells; experiment: Cell viability assay (CCK-8), hKv1.3-transfected HEK293 cells; type: cell-based; settings: 1 h treatment, 0.01, 1, 100, and 500 nM; CCK-8, absorbance 450 nm
Protocol: as §2, §6

[4] = 0.01 nM, HEK293, bath-applied 2 min, pH 7.2, 23–25 °C
[5] = 1 nM, HEK293, bath-applied 2 min, pH 7.2, 23–25 °C
[6] = 1 nM, bar graph at 50 mV (Figure 3), HEK293, bath-applied 2 min, pH 7.2, 23–25 °C
[7] = 100 nM, HEK293, bath-applied 2 min, pH 7.2, 23–25 °C
[8] = 100 nM, bar graph at 50 mV (Figure 3), HEK293, bath-applied 2 min, pH 7.2, 23–25 °C
[9] = 500 nM, HEK293, bath-applied 2 min, pH 7.2, 23–25 °C
[10] = 500 nM, bar graph at 50 mV (Figure 3), HEK293, bath-applied 2 min, pH 7.2, 23–25 °C
[11] = HEK293, bath-applied 2 min, 23–25 °C
[12] = 100 nM, HEK293, bath-applied 2 min, 23–25 °C (Figure 4)
[13] = electrophysiological assay, summary statement

Compound	hKv1.3 IV curve, p vs. 0 nM (hKv1.3; [4])	hKv1.3 IV curve, p vs. 0 nM (hKv1.3; [5])	reduction of hKv1.3 current amplitude at 50 mV, p vs. 0 nM (hKv1.3; [6])	hKv1.3 IV curve, p vs. 0 nM (hKv1.3; [7])	reduction of hKv1.3 current amplitude at 50 mV, p vs. 0 nM (hKv1.3; [8])	hKv1.3 IV curve, p vs. 0 nM (hKv1.3; [9])	reduction of hKv1.3 current amplitude at 50 mV, p vs. 0 nM (hKv1.3; [10])	current of hKv1.3 (current amplitude), effect of treatment (hKv1.3; pH 7.2, 23–25 °C)	hKv1.3 IV curves, two-way ANOVA group effect p (hKv1.3)	hKv1.3 current amplitude at 50 mV, one-way ANOVA p (hKv1.3; Figure 3 bar graphs)	inhibition of the current amplitudes of hKv1.3 by NnK-1 analogs (hKv1.3; [11])	hKv1.3 current amplitude at 50 mV, one-way ANOVA p (hKv1.3; Figure 6 bar graphs)	also measured
O=c1ccc2c(OCCCCc3ccccc3)c3ccoc3cc2o1 [Psora4, reference compound]	< 0.05	< 0.0001	< 0.01	< 0.0001	< 0.001	< 0.0001	< 0.0001	significantly reduced	< 0.0001	< 0.0001			
CKEHHTYGVYCKDWKSSGECKKNPRGMRHFCRKMCGFC (disulfide (positions not given here)) [NnK-1 mu, NnK-1 with three amino acids substituted with 3Glu, 25Arg, and 34Met]											neither NnK-1 mu nor NnK-1 w/o d inhibited the current amplitudes of hKv1.3	0.89	
CKDHHTYGVYCKDWKSSGECKKNPKGMRHFCRKTCGFC (disulfide (positions not given here)) [NnK-1, fifth ShK-like peptide of the Nemopilema nomurai NnK-1 precursor, chemically synthesized]	< 0.01	< 0.0001	< 0.0001	< 0.0001	< 0.0001	< 0.0001	< 0.0001	significantly reduced	< 0.0001	< 0.0001		< 0.05	hKv1.5 IV curve, two-way ANOVA group effect p (hKv1.5; 100 nM NnK-1, Figure 4D, HEK293, bath-applied 2 min, 23–25 °C): < 0.001; inhibition of the current amplitude of hKv1.5 (hKv1.5; [12]): significantly inhibited; channel block, hKv1.5 (hKv1.5; [13]): effective blocker; hKv3.1 IV curve, two-way ANOVA group effect p (hKv3.1): 0.46; hKv11.1 IV curve, two-way ANOVA group effect p (hKv11.1): 0.39; hKv1.4 IV curve, two-way ANOVA group effect p (hKv1.4; 100 nM NnK-1, Figure 4C, HEK293, bath-applied 2 min, 23–25 °C): < 0.01; inhibition of the current amplitude of hKv1.4 (hKv1.4; [12]): significantly inhibited; channel block, hKv1.4 (hKv1.4; [13]): effective blocker; disulfide bonds in solution [1]: maintained even when dissolved in a solution; cell viability, untransfected HEK293 [2]: no difference; hKv1.1 IV curve, two-way ANOVA group effect p (hKv1.1; 100 nM NnK-1, Figure 4A, 23–25 °C): 0.52; inhibition of the current amplitude of hKv1.1 (hKv1.1; 100 nM, 23–25 °C (Figure 4)): not that of hKv1.1, hKv3.1, and hKv.11.1; cell viability, hKv1.3-transfected HEK293 [3]: no difference; reduction of hKv1.3 current amplitude at 50 mV, p vs. 0 nM (hKv1.3; 0.01 nM, bar graph at 50 mV (Figure 3), HEK293, bath-applied 2 min, pH 7.2, 23–25 °C): < 0.05; hKv1.3 IV curve, two-way ANOVA group effect p (hKv1.3; 100 nM NnK-1, Figure 4B, HEK293, bath-applied 2 min, 23–25 °C): < 0.05; reduction of hKv1.3 current amplitude at 50 mV, p vs. 0 nM (hKv1.3; 100 nM, Figure 6B, HEK293, bath-applied 2 min): < 0.05; inhibition of the current amplitude of hKv1.3 (hKv1.3; [12]): significantly inhibited; reduction of hKv1.3 current amplitude at 50 mV, p vs. 0 nM (hKv1.3; 500 nM, Figure 6B, HEK293, bath-applied 2 min): < 0.05; channel block, hKv1.3 (hKv1.3; [13]): effective blocker; also recorded: Kv1.3-blocking activity
CKDHHTYGVYCKDWKSSGECKKNPKGMRHFCRKTCGFC [NnK-1 w/o d, same amino acid residues as NnK-1 but without three pairs of disulfide bonds]											neither NnK-1 mu nor NnK-1 w/o d inhibited the current amplitudes of hKv1.3	0.28	
